Laboratory results: patent US8999982B2, “Pharmaceutically active compounds as Axl inhibitors” (Lead Discovery Center GmbH, priority 2010, dated 2015)

Columns and labels:
Axl [1] = target: T1, Axl (Homo sapiens (Human), UniProt P30530); experiment: Axl binding assay
Method: Binding of the tracer to the kinase is detected using an EU-labeled anti-tag antibody. […] Binding of an inhibitor to the kinase competes for binding with the tracer, resulting in a loss of FRET-signal. At first a compound according to formula (I) was diluted in 20 mM Hepes pH 8.0, 1 mM DTT, 10 mM MgCl2 and 0.01% Brij35.

Axl [2] = target: T1, Axl; experiment: Cellular Axl phosphorylation assay; type: cell-based; details: HEK293 cells transfected with Axl cDNA, 1 hour incubation
Method: 3. Cellular Axl Phosphorylation Assay:
HEK293 embryonal kidney fibroblasts were transfected in 96 wells with a plasmid containing Axl cDNA. As transfection reagent Superfect (Qiagen) was used. Transfection of the sole vector backbone served as negative control of Axl expression. After overnight incubation the cellular supernatant was replaced with fresh medium. On the following day the Axl-expressing cells were incubated for 1 hour with a compound according to formula (I) at the suitable concentrations. […] The mesoscale technology was used for quantification.

T1 sequence (P30530 26-894): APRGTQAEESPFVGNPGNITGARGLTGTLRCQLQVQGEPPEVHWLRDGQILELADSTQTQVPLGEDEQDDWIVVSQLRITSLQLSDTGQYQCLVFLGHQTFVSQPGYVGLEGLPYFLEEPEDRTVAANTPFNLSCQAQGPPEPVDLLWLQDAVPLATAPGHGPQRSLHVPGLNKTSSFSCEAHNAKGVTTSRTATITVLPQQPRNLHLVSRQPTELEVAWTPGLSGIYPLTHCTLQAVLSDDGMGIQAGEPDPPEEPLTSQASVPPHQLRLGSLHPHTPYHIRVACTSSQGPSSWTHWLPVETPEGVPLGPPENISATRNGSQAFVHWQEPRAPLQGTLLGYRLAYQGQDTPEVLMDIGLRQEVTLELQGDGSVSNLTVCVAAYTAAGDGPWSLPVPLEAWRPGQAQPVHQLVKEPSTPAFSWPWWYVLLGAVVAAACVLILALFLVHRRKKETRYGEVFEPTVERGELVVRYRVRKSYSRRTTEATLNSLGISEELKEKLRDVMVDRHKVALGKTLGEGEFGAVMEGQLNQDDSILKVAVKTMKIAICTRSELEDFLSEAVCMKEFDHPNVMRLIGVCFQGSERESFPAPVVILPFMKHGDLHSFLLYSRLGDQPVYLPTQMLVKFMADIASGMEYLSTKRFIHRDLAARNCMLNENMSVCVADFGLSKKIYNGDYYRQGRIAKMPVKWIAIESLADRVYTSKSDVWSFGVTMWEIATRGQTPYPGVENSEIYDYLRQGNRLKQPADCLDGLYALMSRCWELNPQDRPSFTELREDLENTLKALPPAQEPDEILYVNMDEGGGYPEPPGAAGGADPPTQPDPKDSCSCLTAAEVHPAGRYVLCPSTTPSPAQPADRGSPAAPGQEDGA

Row | IC50 (Axl [1]) [nM] | IC50 (Axl [2]) [nM] | IC50 (Axl [1]; listed as compound 64) [nM] | IC50 (Axl [1]; listed as compound 71) [nM] | SMILES
1 | > 10000 | – | – | – | COc1cc2nccc(Oc3ccc(N)cc3Cl)c2cc1OC [3-chloro-4-((6,7-dimethoxyquinolin-4-yl)oxy)aniline]
2 | > 10000 | – | – | – | COc1cc(Oc2ccnc3cc(OC)c(OC)cc23)ccc1N [4-((6,7-dimethoxyquinolin-4-yl)oxy)-2-methoxyaniline]
3 | > 10000 | – | – | – | COc1cc2nccc(Oc3ccc(N)c(C)c3)c2cc1OC [4-((6,7-dimethoxyquinolin-4-yl)oxy)-2-methylaniline]
4 | > 10000 | – | – | – | COc1cc2nccc(Oc3ccc(N)cc3F)c2cc1OC [4-((6,7-dimethoxyquinolin-4-yl)oxy)-3-fluoroaniline]
5 | > 10000 | – | – | – | COc1cc2nccc(Oc3ccc(N)cc3C)c2cc1OC [4-((6,7-dimethoxyquinolin-4-yl)oxy)-3-methylaniline]
6 | > 10000 | – | – | – | COc1cc2nccc(Oc3ccc(N)cc3)c2cc1OC [4-((6,7-dimethoxyquinolin-4-yl)oxy)aniline]
7 | > 10000 | – | – | – | COc1cc2nccc(Oc3ccc(N)nc3)c2cc1OC [5-((6,7-dimethoxyquinolin-4-yl)oxy)pyridin-2-amine]
8 | 500 to 5000 | 500 to 5000 | – | – | COc1cc2nccc(Oc3ccc(NC(=O)c4cc(C)n(C)n4)cc3F)c2cc1OC [Example 1, N-[4-[(6,7-dimethoxy-4-quinolyl)oxy]-3-fluoro-phenyl]-1,5-dimethyl-pyrazole-3-carboxamide]
9 | 500 to 5000 | – | – | – | COc1cc2nccc(Oc3ccc(NC(=O)c4csc(-c5ccc(C(F)(F)F)cc5)n4)cc3F)c2cc1OC [Example 2, N-[4-[(6,7-dimethoxy-4-quinolyl)oxy]-3-fluoro-phenyl]-2-[4-(trifluoromethyl)phenyl]thiazole-4-carboxamide]
10 | 500 to 5000 | 500 to 5000 | – | – | COc1cc2nccc(Oc3ccc(NC(=O)c4nn(C)cc4Br)cc3F)c2cc1OC [Example 3, 4-bromo-N-[4-[(6,7-dimethoxy-4-quinolyl)oxy]-3-fluoro-phenyl]-1-methyl-pyrazole-3-carboxamide]
11 | 500 to 5000 | 500 to 5000 | – | – | COc1cc2nccc(Oc3ccc(NC(=O)c4ccn(C)n4)cc3F)c2cc1OC [Example 4, N-[4-[(6,7-dimethoxy-4-quinolyl)oxy]-3-fluoro-phenyl]-1-methyl-pyrazole-3-carboxamide]
12 | < 500 | < 500 | – | – | COc1cc2nccc(Oc3ccc(NC(=O)c4cc(C)n(C(C)(C)C)n4)cc3F)c2cc1OC [Example 5, 1-tert-butyl-N-[4-[(6,7-dimethoxy-4-quinolyl)oxy]-3-fluoro-phenyl]-5-methyl-pyrazole-3-carboxamide]
13 | 500 to 5000 | – | – | – | COc1cc2nccc(Oc3ccc(NC(=O)c4nccs4)cc3F)c2cc1OC [Example 6, N-[4-[(6,7-dimethoxy-4-quinolyl)oxy]-3-fluoro-phenyl]thiazole-2-carboxamide]
14 | 500 to 5000 | – | – | – | COc1cc2nccc(Oc3ccc(NC(=O)c4nn(C)c5ccccc45)cc3F)c2cc1OC [Example 8, N-[4-[(6,7-dimethoxy-4-quinolyl)oxy]-3-fluoro-phenyl]-1-methyl-indazole-3-carboxamide]
15 | 500 to 5000 | – | – | – | COc1cc2nccc(Oc3ccc(NC(=O)c4cc(C)on4)cc3F)c2cc1OC [Example 9, N-[4-[(6,7-dimethoxy-4-quinolyl)oxy]-3-fluoro-phenyl]-5-methyl-isoxazole-3-carboxamide]
16 | 500 to 5000 | 500 to 5000 | – | – | COc1cc2nccc(Oc3ccc(NC(=O)c4csc(-c5ccccc5)n4)cc3F)c2cc1OC [Example 10, N-[4-[(6,7-dimethoxy-4-quinolyl)oxy]-3-fluoro-phenyl]-2-phenyl-thiazole-4-carboxamide]
17 | 500 to 5000 | < 500 | – | – | CCCn1ccc(C(=O)Nc2ccc(Oc3ccnc4cc(OC)c(OC)cc34)c(F)c2)n1 [Example 13, N-[4-[(6,7-dimethoxy-4-quinolyl)oxy]-3-fluoro-phenyl]-1-propyl-pyrazole-3-carboxamide]
18 | 500 to 5000 | < 500 | – | – | COc1cc2nccc(Oc3ccc(NC(=O)c4ccn(COCC(F)(F)F)n4)cc3F)c2cc1OC [Example 15, N-[4-[(6,7-dimethoxy-4-quinolyl)oxy]-3-fluoro-phenyl]-1-(2,2,2-trifluoroethoxymethyl)pyrazole-3-carboxamide]

Row | IC50 (Axl [1]) [nM] | IC50 (Axl [2]) [nM] | IC50 (Axl [1]; listed as compound 64) [nM] | IC50 (Axl [1]; listed as compound 71) [nM] | SMILES
19 | < 500 | < 500 | – | – | CCOc1cn(-c2ccc(F)cc2)nc1C(=O)Nc1ccc(Oc2ccnc3cc(OC)c(OC)cc23)c(F)c1 [Example 16, N-[4-[(6,7-dimethoxy-4-quinolyl)oxy]-3-fluoro-phenyl]-4-ethoxy-1-(4-fluorophenyl)pyrazole-3-carboxamide]
20 | < 500 | < 500 | – | – | COc1cc2nccc(Oc3ccc(NC(=O)c4nn(-c5ccc(F)cc5)cc4OC)cc3F)c2cc1OC [Example 17, N-[4-[(6,7-dimethoxy-4-quinolyl)oxy]-3-fluoro-phenyl]-1-(4-fluorophenyl)-4-methoxy-pyrazole-3-carboxamide]
21 | < 500 | < 500 | – | – | COc1cc2nccc(Oc3ccc(NC(=O)c4nn(-c5ccc(F)cc5)cc4OCC4CC4)cc3F)c2cc1OC [Example 18, 4-(cyclopropylmethoxy)-N-[4-[(6,7-dimethoxy-4-quinolyl)oxy]-3-fluoro-phenyl]-1-(4-fluorophenyl)pyrazole-3-carboxamide]
22 | < 500 | < 500 | – | – | COc1cc2nccc(Oc3ccc(NC(=O)c4nn(-c5ccc(F)cc5)cc4OCCN(C)C)cc3F)c2cc1OC [Example 19, N-[4-[(6,7-dimethoxy-4-quinolyl)oxy]-3-fluoro-phenyl]-4-(2-dimethylaminoethoxy)-1-(4-fluorophenyl)pyrazole-3-carboxamide]
23 | 500 to 5000 | 500 to 5000 | – | – | COc1cc2nccc(Oc3ccc(NC(=O)c4nn(-c5ccc(F)cc5)cc4OCCCN(C)C)cc3F)c2cc1OC [Example 20, N-[4-[(6,7-dimethoxy-4-quinolyl)oxy]-3-fluoro-phenyl]-4-(3-dimethylaminopropoxy)-1-(4-fluorophenyl)pyrazole-3-carboxamide]
24 | < 500 | < 500 | – | – | COc1cc2nccc(Oc3ccc(NC(=O)c4nn(-c5ccc(F)cc5)cc4OC(C)C)cc3F)c2cc1OC [Example 21, N-[4-[(6,7-dimethoxy-4-quinolyl)oxy]-3-fluoro-phenyl]-1-(4-fluorophenyl)-4-isopropoxy-pyrazole-3-carboxamide]
25 | < 500 | < 500 | – | – | CCOc1cn(-c2ccc(F)cc2Cl)nc1C(=O)Nc1ccc(Oc2ccnc3cc(OC)c(OC)cc23)c(F)c1 [Example 23, 1-(2-chloro-4-fluoro-phenyl)-N-[4-[(6,7-dimethoxy-4-quinolyl)oxy]-3-fluoro-phenyl]-4-ethoxy-pyrazole-3-carboxamide]
26 | < 500 | < 500 | – | – | CCOc1cn(-c2ccc(F)cc2)nc1C(=O)Nc1ccc(Oc2ccnc3cc(OC)c(OC)cc23)cc1 [Example 24, N-[4-[(6,7-dimethoxy-4-quinolyl)oxy]phenyl]-4-ethoxy-1-(4-fluorophenyl)pyrazole-3-carboxamide]
27 | < 500 | < 500 | – | – | COc1cc2nccc(Oc3ccc(NC(=O)c4nn(-c5ccc(F)cc5)cc4OC(C)C)cc3)c2cc1OC [Example 25, N-[4-[(6,7-dimethoxy-4-quinolyl)oxy]phenyl]-1-(4-fluorophenyl)-4-isopropoxy-pyrazole-3-carboxamide]
28 | < 500 | < 500 | – | – | COc1cc2nccc(Oc3ccc(NC(=O)c4nn(-c5ccc(F)cc5)cc4OCC4CC4)cc3)c2cc1OC [Example 26, 4-(cyclopropylmethoxy)-N-[4-[(6,7-dimethoxy-4-quinolyl)oxy]phenyl]-1-(4-fluorophenyl)pyrazole-3-carboxamide]
29 | 500 to 5000 | – | – | – | COc1cc2c(Oc3ccc(NC(=O)c4nc(-c5ccccc5OC)cs4)nc3)ccnc2cc1OCC1CCNCC1 [Example 100, N-(5-((6-methoxy-7-(piperidin-4-ylmethoxy)quinolin-4-yl)oxy)pyridin-2-yl)-4-(2-methoxyphenyl)thiazole-2-carboxamide]
30 | < 500 | – | – | – | CCOc1cn(-c2ccn(C)n2)nc1C(=O)Nc1ccc(Oc2ccnc3cc(OC)c(OC)cc23)c(F)c1 [Example 106, N-(4-((6,7-dimethoxyquinolin-4-yl)oxy)-3-fluorophenyl)-4-ethoxy-1′-methyl-1′H-[1,3′-bipyrazole]-3-carboxamide]
31 | > 10000 | – | – | – | COc1cc2nccc(Oc3ccc(NC(=O)c4cnn(-c5ccccc5)c4C(F)(F)F)cc3F)c2cc1OC [Ref1, N-(4-((6,7-dimethoxyquinolin-4-yl)oxy)-3-fluorophenyl)-1-phenyl-5-(trifluoromethyl)-1H-pyrazole-4-carboxamide, reference compound]
32 | > 10000 | – | – | – | COc1cc2nccc(Oc3ccc(NC(=O)c4cc(-c5ccccc5)on4)cc3F)c2cc1OC [Ref2, N-(4-((6,7-dimethoxyquinolin-4-yl)oxy)-3-fluorophenyl)-5-phenylisoxazole-3-carboxamide, reference compound]
33 | > 10000 | – | ≥ 10000 | – | COc1cc2nccc(Oc3ccc(NC(=O)c4ccco4)cc3)c2cc1OC [Ref3, N-(4-((6,7-dimethoxyquinolin-4-yl)oxy)phenyl)furan-2-carboxamide, reference compound]
34 | > 10000 | – | – | ≥ 10000 | COc1cc2nccc(Oc3ccc(NC(=O)c4ccncc4)cc3)c2cc1OC [Ref5, N-(4-((6,7-dimethoxyquinolin-4-yl)oxy)phenyl)isonicotinamide, reference compound]
35 | > 10000 | – | – | – | COc1cc2c(Oc3ccc(N)cc3F)ccnc2cc1OCC1CCN(C(=O)OC(C)(C)C)CC1 [tert-butyl 4-(((4-(4-amino-2-fluorophenoxy)-6-methoxyquinolin-7-yl)oxy)methyl)piperidine-1-carboxylate]
